Measurements from ChEMBL document CHEMBL2176887, “Chemokine receptor antagonists” (J Med Chem, 2012).

Key:
[1] = tested on: Human immunodeficiency virus 1; experiment: Antiviral activity against R5 tropic Human immunodeficiency virus 1; type: functional, organism-based
[2] = Oral bioavailability in monkey; type: ADME, organism-based, Macaca mulatta; settings: rhesus monkey, in vivo
[3] = physchem; settings: octanol/water
Description: Lipophilicity, log P of the compound

[4] = molecular target: T1, C-C chemokine receptor type 1 (Homo sapiens, UniProt P32246)
T1 sequence (P32246 whole entry): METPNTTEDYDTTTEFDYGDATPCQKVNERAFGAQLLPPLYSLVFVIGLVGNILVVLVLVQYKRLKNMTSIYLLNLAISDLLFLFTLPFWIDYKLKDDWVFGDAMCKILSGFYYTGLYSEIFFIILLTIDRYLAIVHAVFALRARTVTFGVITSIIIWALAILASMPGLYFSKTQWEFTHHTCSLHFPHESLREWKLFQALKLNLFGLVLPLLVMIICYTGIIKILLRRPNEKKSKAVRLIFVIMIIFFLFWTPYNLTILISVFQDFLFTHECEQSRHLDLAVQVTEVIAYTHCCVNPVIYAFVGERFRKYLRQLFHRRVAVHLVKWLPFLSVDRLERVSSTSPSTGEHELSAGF

[5] = molecular target: C-C chemokine receptor type 5 (Homo sapiens, UniProt P51681)
[6] = tested on: Human immunodeficiency virus 1; experiment: Antiviral activity against Human immunodeficiency virus 1 clinical isolate; type: functional, organism-based
[7] = Half life in human; type: ADME, organism-based; settings: in vivo
[8] = octanol/water
Description: Lipophilicity, log P of the compound

[9] = molecular target: T2, C-X-C chemokine receptor type 2 (Homo sapiens, UniProt P25025)
T2 sequence (P25025 whole entry): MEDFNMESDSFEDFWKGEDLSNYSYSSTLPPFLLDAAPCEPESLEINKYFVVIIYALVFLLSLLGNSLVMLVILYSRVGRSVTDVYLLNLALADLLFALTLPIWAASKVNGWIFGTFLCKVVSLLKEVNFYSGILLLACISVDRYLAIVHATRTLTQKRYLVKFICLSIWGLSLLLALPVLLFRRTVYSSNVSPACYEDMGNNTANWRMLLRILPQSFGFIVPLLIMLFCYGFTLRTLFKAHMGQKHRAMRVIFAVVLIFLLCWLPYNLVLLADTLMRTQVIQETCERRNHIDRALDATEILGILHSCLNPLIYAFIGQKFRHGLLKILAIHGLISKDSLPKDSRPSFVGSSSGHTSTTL
Description: Binding affinity to CXCR2

[10] = molecular target: T3, C-X-C chemokine receptor type 1 (Homo sapiens, UniProt P25024)
T3 sequence (P25024 whole entry): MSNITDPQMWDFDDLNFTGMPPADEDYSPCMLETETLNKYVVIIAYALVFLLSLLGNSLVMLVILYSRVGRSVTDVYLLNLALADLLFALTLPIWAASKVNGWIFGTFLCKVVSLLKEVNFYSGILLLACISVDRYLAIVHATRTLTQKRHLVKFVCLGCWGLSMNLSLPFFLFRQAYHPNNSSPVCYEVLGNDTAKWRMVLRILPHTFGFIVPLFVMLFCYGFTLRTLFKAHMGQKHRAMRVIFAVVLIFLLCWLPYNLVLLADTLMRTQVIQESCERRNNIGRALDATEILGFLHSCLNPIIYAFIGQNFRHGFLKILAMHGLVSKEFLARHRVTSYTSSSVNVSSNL
Description: Binding affinity to CXCR1

[11] = molecular target: T2, C-X-C chemokine receptor type 2; experiment: Antagonist activity at CXCR2 assessed as inhibition of neutrophil CD11b up-regulation; type: functional
[12] = Half life in beagle dog; type: ADME, organism-based, Canis lupus familiaris; settings: in vivo
[13] = Oral bioavailability in beagle dog; type: ADME, organism-based, Canis lupus familiaris; settings: in vivo
[14] = Half life in rat; type: ADME, organism-based; settings: in vivo
[15] = molecular target: T4, C-C chemokine receptor type 4 (Homo sapiens, UniProt P51679); experiment: Binding affinity to CCR4
T4 sequence (P51679 whole entry): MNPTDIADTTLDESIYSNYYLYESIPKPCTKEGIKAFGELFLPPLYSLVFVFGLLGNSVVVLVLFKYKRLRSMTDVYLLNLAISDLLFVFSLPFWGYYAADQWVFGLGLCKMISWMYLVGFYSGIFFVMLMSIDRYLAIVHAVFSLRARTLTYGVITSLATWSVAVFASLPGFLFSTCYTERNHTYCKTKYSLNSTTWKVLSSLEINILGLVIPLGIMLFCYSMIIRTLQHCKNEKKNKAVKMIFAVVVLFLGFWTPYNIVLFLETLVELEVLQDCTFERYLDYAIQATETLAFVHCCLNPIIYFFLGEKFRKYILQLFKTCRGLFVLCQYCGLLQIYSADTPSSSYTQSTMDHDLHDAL

[16] = Oral bioavailability in rat; type: ADME, organism-based; settings: in vivo
[17] = molecular target: C-C chemokine receptor type 2 (Homo sapiens, UniProt P41597)
[18] = tested on: Human immunodeficiency virus 1; experiment: Antiviral activity against CCR5-tropic HIV1; type: functional

C-C chemokine receptor type 5, sequence (P51681 whole entry): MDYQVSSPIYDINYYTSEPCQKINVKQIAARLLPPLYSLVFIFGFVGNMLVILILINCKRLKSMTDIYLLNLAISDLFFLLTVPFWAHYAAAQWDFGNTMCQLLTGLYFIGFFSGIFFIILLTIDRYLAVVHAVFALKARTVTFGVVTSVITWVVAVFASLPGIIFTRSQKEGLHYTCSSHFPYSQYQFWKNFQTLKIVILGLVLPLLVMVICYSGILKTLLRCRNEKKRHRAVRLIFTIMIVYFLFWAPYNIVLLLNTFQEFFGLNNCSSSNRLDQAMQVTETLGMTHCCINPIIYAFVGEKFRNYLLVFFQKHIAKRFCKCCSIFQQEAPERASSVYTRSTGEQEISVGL
C-C chemokine receptor type 2, sequence (P41597 whole entry): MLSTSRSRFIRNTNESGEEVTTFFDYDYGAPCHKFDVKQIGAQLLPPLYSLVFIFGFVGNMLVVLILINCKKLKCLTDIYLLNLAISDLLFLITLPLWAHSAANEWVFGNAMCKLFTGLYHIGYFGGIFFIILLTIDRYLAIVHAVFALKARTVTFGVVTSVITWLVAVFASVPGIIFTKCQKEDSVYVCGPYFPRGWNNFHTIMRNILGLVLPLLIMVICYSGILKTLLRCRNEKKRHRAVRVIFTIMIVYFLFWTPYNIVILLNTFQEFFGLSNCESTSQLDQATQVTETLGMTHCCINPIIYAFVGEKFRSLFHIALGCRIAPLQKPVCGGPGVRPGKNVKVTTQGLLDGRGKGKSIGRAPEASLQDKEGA

Question: Which IC50 [1] does the source give for `CCCCN1C(=O)[C@@H]([C@H](O)C2CCCCC2)NC(=O)C12CCN(Cc1ccc(Oc3ccc(C(=O)O)cc3)cc1)CC2` [APLAVIROC] here?
Answer: The IC50 was 0.1 nM.

Question: And the bioavailability [2]?
Answer: The bioavailability was 30%.

Question: And the logP [3]?
Answer: The logP was 3.8.

Question: Which Ki [4] does the source give for `CC(=O)Nc1ccc(O)cc1OC[C@@](C)(O)CNC1CCN(Cc2ccc(Cl)cc2)CC1` [AZD4818] here?
Answer: Its Ki is 5 nM.

Question: And the logP [3]?
Answer: The logP was 1.9.

Question: With `CCN(C(=O)Cc1ccc(S(C)(=O)=O)cc1)C1CCN(CC[C@@H](c2cc(F)cc(F)c2)C2CCC(S(C)(=O)=O)CC2)CC1` (stereo partly drawn) [AZD-5363] as the compound, how does the IC50 [5] read?
Answer: The IC50 was 0.17 nM.

Question: What about the logP [3] of the same compound?
Answer: Its logP is 3.1.

Question: For `CCCCOCCOc1ccc(-c2ccc3c(c2)/C=C(/C(=O)Nc2ccc([S@@+]([O-])Cc4cncn4CCC)cc2)CCCN3CC(C)C)cc1` [CENICRIVIROC], which EC50 [6] is on record?
Answer: The EC50 was 0.061 nM.

Question: And the half-life [7]?
Answer: The half-life was 35 h.

Question: And the logP [8]?
Answer: Its logP is 10.2.

Question: With `O=C(Nc1ccc(Cl)c(S(=O)(=O)N2CCNCC2)c1O)Nc1cccc(F)c1Cl` [ELUBRIXIN] as the compound, how does the IC50 [9] read?
Answer: Its IC50 is 5.1 nM.

Question: What about the IC50 [10] of the same compound?
Answer: The IC50 was greater than 10000 nM.

Question: What about the IC50 [11] of the same compound?
Answer: The IC50 was 261 nM.

Question: And the logP [3]?
Answer: Its logP is 4.2.

Question: Which half-life [12] does the source give for `COc1cccc2c1c(NS(=O)(=O)c1ccc(Cl)s1)nn2Cc1cccc(NC(=O)CO)c1` [GSK-2239633] here?
Answer: The half-life was 2.6 h.

Question: What about the bioavailability [13] of the same compound?
Answer: Its bioavailability is 97%.

Question: What about the half-life [14] of the same compound?
Answer: Its half-life is 2.5 h.

Question: And the Ki [15]?
Answer: Its Ki is 10 nM.

Question: What about the bioavailability [16] of the same compound?
Answer: Its bioavailability is 85%.

Question: For `Cc1cnc(C(=O)c2ncnc3[nH]ccc23)c(NS(=O)(=O)c2ccc(Cl)c(C(F)(F)F)c2)c1` [ILACIRNON], which IC50 [17] is on record?
Answer: Its IC50 is 5 nM.

Question: For `CCO[C@@H]1Cc2cc(C(F)(F)F)ccc2[C@H]1N1CCN(C2(C)CCN(C(=O)c3c(C)ncnc3C)CC2)C[C@@H]1C` [INCB-9471], which IC50 [5] is on record?
Answer: Its IC50 is 3.1 nM.

Question: And the logP [3]?
Answer: The logP was 3.9.

Question: Which logP [3] does the source give for `Cc1nnc(C(C)C)n1[C@@H]1C[C@H]2CC[C@@H](C1)N2CC[C@H](NC(=O)C1CCC(F)(F)CC1)c1ccccc1` [MARAVIROC] here?
Answer: Its logP is 4.4.

Question: Which IC90 [18] does the source give for `Cc1nnc(C(C)C)n1[C@H]1C[C@H]2CC[C@@H](C1)N2CC[C@H](NC(=O)C1CCC(F)(F)CC1)c1ccccc1` [MARAVIROC] here?
Answer: The IC90 was 2 nM.

Question: With `CC[C@@H](Nc1c(Nc2cccc(C(=O)N(C)C)c2O)c(=O)c1=O)c1ccc(C)o1` [NAVARIXIN ANHYDROUS] as the compound, how does the logP [3] read?
Answer: The logP was 1.

Question: With `c1cc(CN2CCCNCCNCCCNCC2)ccc1CN1CCCNCCNCCCNCC1` [PLERIXAFOR] as the compound, how does the logP [8] read?
Answer: Its logP is -0.4.

Question: For `CC(C)(C)c1ccc(S(=O)(=O)Nc2ccc(Cl)cc2C(=O)c2cc[n+]([O-])cc2)cc1` [VERCIRNON], which logP [3] is on record?
Answer: Its logP is 4.7.

Question: Which logP [3] does the source give for `COC[C@@H](c1ccc(C(F)(F)F)cc1)N1CCN(C2(C)CCN(C(=O)c3c(C)ncnc3C)CC2)C[C@@H]1C` [VICRIVIROC] here?
Answer: Its logP is 3.6.
